Assay [1] addresses YtpP (Bacillus subtilis, UniProt O34357, C28S). Kind of assay: anti-CoA Western blot after incubation with CoAlated protein. It counts as binding. Conditions: covalent; CoA transferred from the CoAlated protein, 30 min, 37 C.
Another assay concerns the target T1, TrxA (Bacillus subtilis, UniProt P14949).
T1 construct: about 11 kDa, N-terminal 6xHis tag (pET28a), E. coli BLR(DE3)
T1 sequence (P14949 1-104): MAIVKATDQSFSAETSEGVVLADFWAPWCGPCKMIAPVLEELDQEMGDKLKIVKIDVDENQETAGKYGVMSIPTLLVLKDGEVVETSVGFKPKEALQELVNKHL
Kind of assay: HPLC ([…] nm) of released CoA; anti-CoA Western blot. The format is biochemical. Conditions: CoA released from 6 uM CoA-MsrA or CoA-PRDX5 by 60 uM enzyme, 1 h, 37 C.

Another assay deals with T2, MsrA (Corynebacterium diphtheriae, UniProt Q6NEL2).
T2 construct: 26 kDa
T2 sequence (Q6NEL2 1-220): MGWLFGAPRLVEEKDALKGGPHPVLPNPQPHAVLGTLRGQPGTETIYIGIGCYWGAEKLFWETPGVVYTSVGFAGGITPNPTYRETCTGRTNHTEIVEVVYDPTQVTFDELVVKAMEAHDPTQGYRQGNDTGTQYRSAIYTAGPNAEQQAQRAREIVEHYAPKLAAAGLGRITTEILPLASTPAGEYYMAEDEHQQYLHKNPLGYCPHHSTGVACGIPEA
In words: anti-CoA Western blot after in vitro CoAlation. It counts as binding. Conditions: covalent mixed disulfide with cysteine; protein:CoA:H2O2 1:3:10, RT, 30 min; monomer and oligomer bands.

Another assay concerns the target T3, GAPDH (Staphylococcus aureus, UniProt Q6GIL8).
T3 construct: gene gapA1
T3 sequence (Q6GIL8 1-336): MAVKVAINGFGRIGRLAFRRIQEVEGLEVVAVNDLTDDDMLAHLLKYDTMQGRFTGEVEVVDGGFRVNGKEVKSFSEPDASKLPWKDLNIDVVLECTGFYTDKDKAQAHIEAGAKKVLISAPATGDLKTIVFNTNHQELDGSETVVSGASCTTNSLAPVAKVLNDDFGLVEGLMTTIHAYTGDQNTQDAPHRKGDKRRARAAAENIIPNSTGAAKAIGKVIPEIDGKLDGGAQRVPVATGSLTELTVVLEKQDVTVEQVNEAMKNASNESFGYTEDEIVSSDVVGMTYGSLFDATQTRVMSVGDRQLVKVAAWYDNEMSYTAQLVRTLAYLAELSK
Kind of assay: anti-CoA ELISA and Western blot after in vitro CoAlation. It counts as binding. Conditions: covalent mixed disulfide with cysteine; protein:CoA:H2O2 1:3:10, RT, 30 min; reversed by 10 mM DTT.

A further assay addresses T4, PRDX5 (Homo sapiens, UniProt P30044).
T4 sequence (P30044 54-214): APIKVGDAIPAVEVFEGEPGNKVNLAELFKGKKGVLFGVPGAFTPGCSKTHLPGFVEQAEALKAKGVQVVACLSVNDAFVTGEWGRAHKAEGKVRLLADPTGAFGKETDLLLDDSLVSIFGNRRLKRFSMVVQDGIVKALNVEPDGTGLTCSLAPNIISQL
In words: anti-CoA Western blot after in vitro CoAlation. The format is binding. Conditions: covalent mixed disulfide with cysteine; protein:CoA:H2O2 1:3:10, RT, 30 min; monomer and oligomer bands.

In assay [2] the target is T5, YtpP (Bacillus subtilis, UniProt O34357).
T5 sequence (O34357 1-107): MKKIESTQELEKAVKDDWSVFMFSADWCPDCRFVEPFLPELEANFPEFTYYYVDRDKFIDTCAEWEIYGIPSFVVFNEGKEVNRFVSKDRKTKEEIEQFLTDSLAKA
Kind of assay: HPLC ([…] nm) of released CoA; anti-CoA Western blot. It counts as biochemical. Conditions: CoA released from 6 uM CoA-MsrA or CoA-PRDX5 by 60 uM enzyme, 1 h, 37 C.

Chain of YtpP (Bacillus subtilis, UniProt O34357, C28S) (O34357 whole entry C28S): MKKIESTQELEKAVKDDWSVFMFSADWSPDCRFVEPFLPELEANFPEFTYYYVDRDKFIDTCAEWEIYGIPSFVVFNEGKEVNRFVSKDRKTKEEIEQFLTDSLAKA

Take `CC(C)(COP(=O)(O)OP(=O)(O)OC[C@H]1O[C@@H](n2cnc3c(N)ncnc32)[C@H](O)[C@@H]1OP(=O)(O)O)[C@@H](O)C(=O)NCCC(=O)NCCS` [CoA]: on YtpP [1], the “anti-CoA Western blot after incubation with CoAlated protein” value is recorded as ““Δ” represents either CoAlated YtpP C28S or YtpP C31S, or CoAlated TrxA C29S”. Also, the “HPLC (254 nm) of released CoA; anti-CoA Western blot” value was “Following deCoAlation of both substrates by YtpP and TrxA, CoA release was monitored” on TrxA; “Following deCoAlation of both substrates by YtpP and TrxA, CoA release was monitored” on YtpP [2]. For the same compound, the “anti-CoA Western blot after in vitro CoAlation” value on MsrA and at PRDX5 was “anti-CoA WB was used to confirm the CoAlation of both proteins” throughout. Further, the “anti-CoA ELISA and Western blot after in vitro CoAlation” value at GAPDH is “high signal was recorded due to the detection of CoA on the CoAlated protein”.

These data come from publication PMC10136147, “Bacillus subtilis YtpP and Thioredoxin A Are New Players in the Coenzyme-A-Mediated Defense Mechanism against Cellular Stress” (Antioxidants, 2023).
